Source: patent publication US20100239556A1, “PROMOTING ECM PRODUCTION BY FIBROBLAST CELLS AND/OR PROMOTING MIGRATION OF FIBROBLAST CELLS IN A BIOLOGICAL SYSTEM” (TGR BioScience Pty Ltd., priority 2006, published 2010)

Assays:
Assay type in all cases: cell-based, human
HFF cells [1] = experiment: Collagen I production in the presence of dexamethasone
Method: Primary human foreskin fibroblast cells (HFF) were seeded into 96 well plates at a density of 1.2×10^4 cells/well and cultured overnight in 10% fetal bovine serum/Dulbecco's minimum essential media (10% FBS/DMEM) at 37° C. and 5% CO2. The cells were then starved overnight in serum free DMEM and triplicate wells treated for six hours with a range of doses of proteins with peroxidase activity; horse radish peroxidase (HRP; 0.2-50 ug/ml), Arthromyces ramosus peroxidase (ARP; 0.2-50 ug/ml), microperoxidase (MP; 8-500 ug/ml), soy bean peroxidase (SBP; 0.2-100 ug/ml) and lactoperoxidase (LP; 10-310 ug/ml) (all obtained from Sigma-Aldrich). At the end of the six hour treatment period, the media was aspirated and replaced with fresh serum free DMEM and the cells cultured for a further 72 hours. After 72 hours the culture media was collected for assessment of secreted, soluble collagen types I, III and VI as well as fibronectin protein and the cells assessed for viability/growth using an alamar blue fluorescent dye assay. This assay measures the reduction of oxidized, blue nonfluorescent Alamar Blue reagent to a pink fluorescent dye in the cell medium, such that the higher the amount of reduction, the greater the cell number and/or activity (O'Brien Eur J Biochem 267 2000). Briefly, cells were bathed in a 10% Alamar Blue/phosphate-buffered saline (PBS) solution for 30-60 minutes and fluorescence measured at wavelengths of 485 nm excitation and 595 nm emission using a Wallac Victor Multilabel HTS counter. Relative fluorescent units (RFU) for each sample were normalized to control wells (DMEM only treated cells) and data expressed as mean±standard error of the mean (sem) for triplicate wells. Experiments were repeated at least three times with the combined data from all experiments shown.
The amount of soluble collagen types I, III, and VI in HFF conditioned media was measured by a direct coat ELISA method using standard curves constructed from purified human collagen I, III or VI (extracted from human placenta; col I, BD Biosciences; col III and VI, Rocklands Immunochemicals) and fibronectin (extracted from human plasma, Chemicon). Samples and standards (20 μl/well) were added to a 384 well spectraplate (Packard BioScience) and left at room temperature (RT) overnight. […] After a final wash (6×PBS-T), enhancement solution was added for at least 10 minutes and fluorescence measured at excitation 340 nm and emission 615 nm using a Wallac Victor Multilabel HTS counter. The respective ECM concentration of each sample was determined from the standard curve (μg/ml) and normalized to control wells (DMEM only treated cells) with the mean±sem for triplicate wells calculated. […]

HFF cells [2] = experiment: Collagen I in PuraMatrix Peptide Hydrogel (western blot); conditions: one week
Method: Additional experiments were also performed to ensure the effects observed using the INTEGRA® as a three-dimensional framework or scaffold were not limited to a bovine collagen/glycosaminoglycan structure and could be achieved in synthetically derived matrices. For these experiments a PuraMatrix™ Peptide Hydrogel was used. The PuraMatrix Peptide Hydrogel is a synthetic matrix that self assembles into a three-dimensional hydrogel (1% w/v amino acids: 99% water) under physiological conditions with a nanometer scale fibrous structure and an average pore size of 50-200 nm. For these experiments, HFF cells were suspended in a 20% sucrose solution, with or without proteins having peroxidase activity, and added 1:1 to neat (1%) PuraMatrix hydrogel and carefully pipette mixed, so as not to create bubbles. Each cell/gel mix was plated in 24 well plates and allowed to partially set at room temperature for 5 min. Next, DMEM supplemented with either 10, 5 or 2% FCS was very slowly overlayed in a dropwise fashion down the edge of the well so as not to disrupt the gel. Plates were placed in a 37° C. incubator for the mix to completely solidify, and the media was changed twice over 1 hr to equilibrate the gel to pH 7.4. The encapsulated hydrogel was incubated for one week, the bathing culture media removed and RIPA buffer added to the gel for total protein extraction. […]

HFF cells [3] = experiment: Soluble collagen I secreted by fibroblast-populated INTEGRA (ELISA); conditions: SBP 12.5 μg/ml for 24 hours, ELISA after 72 hours
Method: Additional experiments were performed to determine if fibroblast cells populating a three-dimensional framework or scaffold could be stimulated to secrete soluble collagen I into the media bathing the three-dimensional framework or scaffold. For these experiments, HFF cells were seeded onto the INTEGRA® and allowed to populate the scaffold for two weeks under normal culture conditions (10% FCS supplementation). The populated scaffold was then stimulated with a protein having peroxidase activity by immersing it in basal media (DMEM) containing SBP (12.5 μg/ml) for 24 hours. The INTEGRA® was then placed into fresh DMEM and the collagen-I content of the media measured by ELISA after 72 hours.

Row | Substance | increase in collagen I levels (HFF cells [1]; 3.1-25 μg/ml, no dexamethasone) | collagen accumulation in cells treated with both dexamethasone and ARP (HFF cells [1]; dexamethasone 20 μM) | collagen I produced in the Hydrogel matrix (HFF cells [2]; SBP 25 μg/ml in 10% FCS versus 10% FCS alone) | collagen I produced in the Hydrogel matrix (HFF cells [2]; SBP in 2 or 5% FCS) | increase in collagen I secreted into the media bathing the scaffold (HFF cells [3])
1 | Arthromyces ramosus peroxidase [ARP] | 4.5-7 fold | significant levels of collagen accumulation were still evident | – | – | –
2 | soy bean peroxidase [SBP] | – | – | produced more collagen I | relatively more collagen I was produced | 2-3 fold
